Measurements taken from patent US20230265151A1, “GIP/GLP1 CO-AGONIST COMPOUNDS” (priority 2020, published 2023).
Read-outs that look alike come from different tables or passages of the source.

How the values were obtained:
Type in all cases: cell-based
hGCGR = molecular target: T1, hGCGR (Homo sapiens, UniProt P47871); assay: Functional cAMP formation (HTRF) in HEK-293 clonal cells expressing hGCGR, 0.1% bovine casein, without or with 1.0% human serum albumin; details: cAMP
T1 construct: expressed in transfected cells
Summary of the method: (§1)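 Cells were stimulated with peptide for 30 min at 37° C, then intracellular cAMP was measured by competitive HTRF (665/620 nm ratio) and converted to nM using a cAMP standard curve. Relative EC50 and Emax came from four-parameter logistic fits of percent maximal response against peptide concentration.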

hGLP-1R = hGLP-1R (Homo sapiens, UniProt P43220); assay: Functional cAMP formation (HTRF) in HEK-293 clonal cells expressing hGLP-1R, 0.1% bovine casein, without or with 1.0% human serum albumin; design: expressed in transfected cells; details: for EC50: cAMP, 0.1% bovine casein (no human serum albumin), geometric mean
Summary of the method: as §1

hGIPR = molecular target: T2, hGIPR (Homo sapiens, UniProt P48546); assay: Functional cAMP formation (HTRF) in HEK-293 clonal cells expressing hGIPR, 0.1% bovine casein, without or with 1.0% human serum albumin; details: for EC50: cAMP, 0.1% bovine casein (no human serum albumin), geometric mean
T2 construct: expressed in transfected cells
T2 sequence (P48546 22-466): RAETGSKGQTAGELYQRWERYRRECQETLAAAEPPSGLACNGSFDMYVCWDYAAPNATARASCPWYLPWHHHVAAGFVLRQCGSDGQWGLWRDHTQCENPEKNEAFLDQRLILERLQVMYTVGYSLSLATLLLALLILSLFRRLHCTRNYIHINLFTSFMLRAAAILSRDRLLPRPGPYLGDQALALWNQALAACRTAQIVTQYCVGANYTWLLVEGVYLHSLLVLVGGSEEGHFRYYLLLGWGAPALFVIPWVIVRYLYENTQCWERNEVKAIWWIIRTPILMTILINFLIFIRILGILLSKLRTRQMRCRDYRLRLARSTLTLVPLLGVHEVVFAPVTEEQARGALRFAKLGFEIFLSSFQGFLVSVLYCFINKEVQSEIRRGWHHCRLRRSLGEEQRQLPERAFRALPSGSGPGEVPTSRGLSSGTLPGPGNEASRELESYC
Summary of the method: as §1

T1 sequence (P47871 26-477): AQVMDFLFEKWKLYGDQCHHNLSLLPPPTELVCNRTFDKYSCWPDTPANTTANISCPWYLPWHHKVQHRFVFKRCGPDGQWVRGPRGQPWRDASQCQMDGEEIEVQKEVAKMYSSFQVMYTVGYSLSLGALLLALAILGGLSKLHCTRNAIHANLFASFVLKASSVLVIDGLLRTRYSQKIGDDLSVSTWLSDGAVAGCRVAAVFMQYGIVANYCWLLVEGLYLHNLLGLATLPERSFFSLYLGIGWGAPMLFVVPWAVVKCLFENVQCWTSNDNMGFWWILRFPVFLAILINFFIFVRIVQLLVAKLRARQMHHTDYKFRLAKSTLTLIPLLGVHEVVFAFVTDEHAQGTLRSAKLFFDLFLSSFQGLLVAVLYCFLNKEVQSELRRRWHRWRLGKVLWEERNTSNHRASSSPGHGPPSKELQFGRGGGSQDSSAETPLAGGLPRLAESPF
hGLP-1R, sequence (P43220 24-463): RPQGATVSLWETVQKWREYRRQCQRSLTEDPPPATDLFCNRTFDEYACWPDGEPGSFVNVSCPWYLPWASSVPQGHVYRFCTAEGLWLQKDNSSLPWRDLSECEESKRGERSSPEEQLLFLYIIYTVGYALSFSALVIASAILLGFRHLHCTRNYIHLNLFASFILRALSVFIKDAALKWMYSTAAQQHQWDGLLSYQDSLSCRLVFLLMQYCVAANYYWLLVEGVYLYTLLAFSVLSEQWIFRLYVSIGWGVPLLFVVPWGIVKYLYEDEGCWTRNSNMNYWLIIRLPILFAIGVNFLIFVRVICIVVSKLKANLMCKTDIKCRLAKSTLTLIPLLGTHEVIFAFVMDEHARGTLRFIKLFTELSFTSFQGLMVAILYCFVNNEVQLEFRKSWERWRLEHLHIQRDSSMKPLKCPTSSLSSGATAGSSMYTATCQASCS

Row | SMILES | EC50 (hGCGR; incubated at 37° C., 0.1% bovine casein (no human serum albumin), geometric mean, read-out: hGCGR EC50, nM (SEM, n)) [nM] | Emax (hGLP-1R; HEK293, percent of maximal response to GLP-1(7-36)NH2, 37° C., 0.1% bovine casein, arithmetic mean, read-out: hGLP-1R Emax, % ± SEM) [%] | EC50 (hGLP-1R; incubated at 37° C., read-out: hGLP-1R EC50, nM (SEM, n)) [nM] | Emax (hGIPR; HEK293, percent of maximal response to GIP(1-42)NH2, 37° C., 0.1% bovine casein, arithmetic mean, read-out: hGIPR Emax, % ± SEM) [%] | EC50 (hGIPR; incubated at 37° C., read-out: hGIPR EC50, nM (SEM, n)) [nM] | EC50 (hGCGR; hGCGR EC50, nM (SEM, n), 37° C., 0.1% bovine casein (no human serum albumin), geometric mean) [nM] | EC50 (hGCGR; hGCGR EC50, nM (SEM, n), 37° C., 0.1% bovine casein and 1.0% human serum albumin, geometric mean (SEM, n)) [nM] | Emax (hGLP-1R; HEK293, read-out: hGLP-1R Emax, % ± SEM, cAMP, 37° C., 0.1% bovine casein and 1.0% human serum albumin, percent of maximal response to GLP-1(7-36)NH2) [%] | Emax (hGLP-1R; HEK293, read-out: hGLP-1R Emax, % ± SEM, cAMP, 37° C., 0.1% bovine casein, percent of maximal response to GLP-1(7-36)NH2, arithmetic mean) [%] | EC50 (hGLP-1R; hGLP-1R EC50, nM (SEM, n), 37° C.) [nM] | Emax (hGIPR; HEK293, read-out: hGIPR Emax, % ± SEM, cAMP, 37° C., 0.1% bovine casein and 1.0% human serum albumin, percent of maximal response to GIP(1-42)NH2) [%] | EC50 (hGIPR; hGIPR EC50, nM (SEM, n), 37° C.) [nM]
1 | CC[C@H](C)[C@H](NC(=O)[C@H](CC(C)C)NC(=O)[C@](C)(Cc1ccc(O)cc1)NC(=O)[C@@H](CCC(=O)O)NC(=O)[C@@H](NC(=O)[C@H](Cc1ccccc1)NC(=O)[C@H](CCC(=O)O)NC(=O)C(C)(C)NC(=O)[C@H](CCC(N)=O)NC(=O)[C@H](C)NC(=O)[C@H](CCCCNC(=O)COCCOCCNC(=O)COCCOCCNC(=O)[C@@H](N)CCCCNC(=O)CCCCCCCCCCCCC(=O)O)NC(=O)[C@H](CCCN)NC(=O)[C@H](CC(=O)O)NC(=O)[C@H](CC(C)C)NC(=O)[C@](C)(CC(C)C)NC(=O)[C@@H](NC(=O)C(C)(C)NC(=O)[C@@H](NC(=O)[C@H](CC(=O)O)NC(=O)[C@H](CO)NC(=O)[C@@H](NC(=O)[C@](C)(Cc1ccccc1F)NC(=O)[C@@H](NC(=O)CNC(=O)[C@H](CCC(=O)O)NC(=O)C(C)(C)NC(=O)[C@@H](N)Cc1ccc(O)cc1)[C@@H](C)O)[C@@H](C)O)C(C)C)[C@@H](C)CC)[C@@H](C)CC)C(=O)N[C@@H](CCC(=O)O)C(=O)NCC(=O)NCC(=O)N[C@@H](CCCCNC(=O)COCCOCCNC(=O)COCCOCCNC(=O)[C@@H](N)CCCCNC(=O)CCCCCCCCCCCCC(=O)O)C(=O)N[C@@H](CO)C(=O)N[C@@H](CO)C(=O)NCC(=O)N[C@@H](C)C(=O)N1CCC[C@H]1C(=O)N1CCC[C@H]1C(=O)N1CCC[C@H]1C(=O)N[C@@H](CO)C(N)=O [Example 163] | > 9950 | 86.3 | 0.199 | 98.2 | 0.0427 | – | – | – | – | – | – | –
2 | CC[C@H](C)[C@H](NC(=O)[C@H](CC(C)C)NC(=O)[C@](C)(Cc1ccc(O)cc1)NC(=O)[C@@H](CCC(=O)O)NC(=O)[C@@H](NC(=O)[C@H](Cc1ccccc1)NC(=O)[C@H](CCC(=O)O)NC(=O)C(C)(C)NC(=O)[C@H](CCC(N)=O)NC(=O)[C@H](C)NC(=O)[C@H](CCCCNC(=O)COCCOCCNC(=O)COCCOCCNC(=O)CC[C@H](NC(=O)CCCCCCCCCOc1ccc(C(=O)O)cc1)C(=O)O)NC(=O)[C@H](CCCN)NC(=O)[C@H](CC(=O)O)NC(=O)[C@H](CC(C)C)NC(=O)[C@](C)(CC(C)C)NC(=O)[C@@H](NC(=O)C(C)(C)NC(=O)[C@@H](NC(=O)[C@H](CC(=O)O)NC(=O)[C@H](CO)NC(=O)[C@@H](NC(=O)[C@](C)(Cc1ccccc1F)NC(=O)[C@@H](NC(=O)CNC(=O)[C@H](CCC(=O)O)NC(=O)C(C)(C)NC(=O)[C@@H](N)Cc1ccc(O)cc1)[C@@H](C)O)[C@@H](C)O)C(C)C)[C@@H](C)CC)[C@@H](C)CC)C(=O)N[C@@H](CCCCNC(=O)COCCOCCNC(=O)COCCOCCNC(=O)CC[C@H](NC(=O)CCCCCCCCCOc1ccc(C(=O)O)cc1)C(=O)O)C(=O)NCC(=O)NCC(=O)N1CCC[C@H]1C(=O)N[C@@H](CO)C(=O)N[C@@H](CO)C(=O)NCC(=O)N[C@@H](C)C(=O)N1CCC[C@H]1C(=O)N1CCC[C@H]1C(=O)N1CCC[C@H]1C(=O)N[C@@H](CO)C(N)=O [Example 326] | – | – | – | – | – | > 9950 | > 9950 | 96.1 | 94.4 | 0.186 | 88.7 | 0.0338
